The source of these data is US7351708B2, “Pyrrolo [2,3-b] pyridine derivatives” (Hoffmann-La Roche Inc., priority 2005, dated 2008).

The target of this experiment is T1, histamine 3 receptor (H3R) (Homo sapiens, UniProt Q9Y5N1).
T1 construct: expressed in transfected cells; host or cells: CHO cells (HR3-CHO cell line), membranes
T1 sequence (Q9Y5N1 whole entry): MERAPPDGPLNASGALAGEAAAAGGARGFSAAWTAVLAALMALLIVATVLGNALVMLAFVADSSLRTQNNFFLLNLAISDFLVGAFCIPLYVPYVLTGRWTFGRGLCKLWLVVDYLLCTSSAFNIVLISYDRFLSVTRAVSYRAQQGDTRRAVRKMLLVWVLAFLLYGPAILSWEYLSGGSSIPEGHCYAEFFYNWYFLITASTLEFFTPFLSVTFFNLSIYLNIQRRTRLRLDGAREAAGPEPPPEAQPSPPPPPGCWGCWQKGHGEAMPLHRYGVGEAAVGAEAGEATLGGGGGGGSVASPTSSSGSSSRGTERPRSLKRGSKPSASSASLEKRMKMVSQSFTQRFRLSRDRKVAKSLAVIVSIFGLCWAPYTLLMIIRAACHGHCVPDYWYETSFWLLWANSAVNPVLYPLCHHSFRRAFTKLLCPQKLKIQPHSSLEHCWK
Briefly: Binding assay with 3H-(R)α-Methylhistamine (competition binding, membranes of the human HR3-CHO cell line). The settings on record: competition against 3H(R)α-Methylhistamine (1 nM), Ki calculated from IC50 by Cheng-Prusoff. As for the experimental part:
Binding Assay with ^3H—(R)α-Methylhistamine
Saturation binding experiments were performed using HR3-CHO membranes prepared as described in Takahashi, K, Tokita, S., Kotani, H. (2003) J. Pharmacol. Exp. Therapeutics 307, 213-218.
An appropriate amount of membrane (60 to 80 μg protein/well) was incubated with increasing concentrations of ^3H(R)α-Methylhistamine di-hydrochloride (0.10 to 10 nM). Non specific binding was determined using a 200 fold excess of cold (R)α-Methylhistamine dihydrobromide (500 nM final concentration). The incubation was carried out at room temperature (in deep-well plates shaking for three hours). The final volume in each well was 250 μl. The incubation was followed by rapid filtration on GF/B filters (pre-soaked with 100 μl of 0.5% PEI in Tris 50 mM shaking at 200 rpm for two hours). The filtration was made using a cell-harvester and the filter plates were then washed five times with ice cold washing buffer containing 0.5 M NaCl. After harvesting, the plates were dried at 55° C. for 60 min, then we added scintillation fluid (Microscint 40, 40 microl in each well) and the amount of radioactivity on the filter was determined in Packard top-counter after shaking the plates for two hours at 200 rpm at room temperature.
Binding Buffer: 50 mM Tris-HCl pH 7.4 and 5 mM MgCl2x 6H2O pH 7.4. Washing Buffer: 50 mM Tris-HCl pH 7.4 and 5 mM MgCl2x6H2O and 0.5 M NaCl pH 7.4.
Indirect measurement of affinity of H3R inverse agonists: twelve increasing concentrations (ranging from 10 μM to 0.3 nM) of the selected compounds were always tested in competition binding experiments using membrane of the human HR3-CHO cell line. An appropriate amount of protein, e.g. approximately 500 cpm binding of RAMH at Kd, were incubated for 1 hour at room temperature in 250 μl final volume in 96-well plates in presence of ^3H(R)α-Methylhistamine (1 nM final concentration=Kd). […]
All compounds were tested at a single concentration in duplicates. […] Ki's were calculated from IC50 based on Cheng-Prusoff equation (Cheng, Y, Prusoff, WH (1973) Biochem Pharmacol 22, 3099-3108).
Broadly, the Ki is the equilibrium dissociation constant of an inhibitor or competing ligand from its target. Regarding `O=C(NC1CCCCC1)c1cc2ccc(N3CCN(C4CCCC4)CC3)nc2[nH]1` [Example 4, 6-(4-cyclopentyl-piperazin-1-yl)-1H-pyrrolo[2,3-b]pyridine-2-carboxylic acid cyclohexylamide], the inhibition constant Ki was 22.7 nM. As to `O=C(c1cc2ccc(N3CCN(C4CCCC4)CC3)nc2[nH]1)N1CCCCC1` [Example 1, [6-(4-Cyclopentyl-piperazin-1-yl)-1H-pyrrolo[2,3-b]pyridin-2-yl]-piperidin-1-yl-methanone], the inhibitory constant (Ki) is 48.4 nM.

Consider `O=C(c1cc2ccc(N3CCN(C4CCCC4)CC3)nc2[nH]1)N1CCC(O)C1` (stereo not drawn) [Example 8, [6-(4-cyclopentyl-piperazin-1-yl)-1H-pyrrolo[2,3-b]pyridin-2-yl]-(3-hydroxy-pyrrolidin-1-yl)-methanone], for which the Ki is 83.1 nM.
